Data from patent US7786097B2, “Tricyclic compounds, compositions and methods” (Pfizer Inc., priority 2007, dated 2010).

Legend:
[1] = tested on: IL-6 levels in Human A549 lung epithelial cells; assay: IL-1β-stimulated IL-6 in A549 cells; type: cell-based; settings: additional results (footnote a)
Method: IL-6 IC50 and % Inhibition
Human A549 lung epithelial cells (American Type Culture Collection, Rockville, Md.) were cultured in Kaighn's F-12K medium with penicillin-streptomycin (10 U/mL) and 10% heat-inactivated fetal bovine serum (all from Invitrogen, Grand Island, N.Y.). A549 cells were plated at a density of 30,000 cells/well in 96-well plates and incubated overnight at 37° C. and with 5% CO2. The cells were serum-starved by replacing the growth medium with serum-free Kaighn's F-12K medium with penicillin-streptomycin (10 U/mL) and, again, incubating overnight at 37° C. and with 5% CO2. On the third day, the medium was replaced with fresh serum-free medium and the cells were incubated with or without compound (vehicle was DMSO at 0.1% maximum concentration) for approximately 1 hour and then stimulated with 1 ng/mL recombinant human IL-1β (R&D Systems, Minneapolis, Minn.) for 20 hours at 37° C. and with 5% CO2. Cell supernatants were collected for determination of IL-6 levels using MSD (Meso Scale Discovery, Gaithersburg, Md.) 96-well Single Spot plates as per the manufacturer's instructions. Plates were read with an MSD Sector Imager 6000. […] Vehicle was used to define the 0% inhibition control. Percent inhibition for each compound concentration, relative to these controls, was calculated using Excel (Microsoft, Redmond, Wash.). […]

LPS-induced serum TNFα = LPS-induced serum TNFα suppression, 28-day repeat dose mouse model; type: in vivo, Swiss Webster female mice; settings: mice, oral gavage 28 days
Method: The compounds were weighed and suspended in a vehicle of 0.5% methylcellulose/0.025% tween 20 (Sigma-Aldrich, St. Louis, Mo.). Compound suspensions were homogenized using a Polytron PT-3100 tissue homogenizer to create a very fine suspension and were then sonicated for 10 minutes using a water bath sonicator. Aliquots of each suspension were made for daily dosing at 0.2 ml/dose. Swiss Webster female mice, 10-12 weeks old, 28-29 grams, (Taconic, Germantown, N.Y.) were used in accordance with the guidelines of the Institutional Animal Care and Use Committee and in accordance with NIH guidelines on laboratory animal welfare. Mice were acclimated in the Pfizer animal facility for three to seven days prior to being utilized in a study. […] Each treatment group contained 5-10 mice. To establish a dosing regimen for the studies, a pilot pharmacodynamic time course experiment was conducted to quantify TNFα repression after a single ED80 dose.
Body weights were measured on the first and last day of each experiment. Blood samples were obtained after three weeks of dosing for a steady-state pharmacokinetic (PK) analysis. To assess compound effects on LPS-induced TNFα, all mice received an intraperitoneal injection of LPS (Salmonella typhosa, L-7895; Sigma-Aldrich, St. Louis) 2.5 hr after the last dose on day 28. Mice were sacrificed 90 minutes after LPS administration. Serum samples were quantified for osteocalcin and TNFα using the multiplex assays (Linco Research, Inc, St. Charles, Mo.; Luminex 100, Austin, Tex.). Samples were diluted 1:20 and the assay was run according to manufacturer's instructions. The osteocalcin standard was purchased separately (Biomedical Technologies Inc., Stoughton, Mass.). Mice were fasted for 4 hours before serum was collected for TNFα, and osteocalcin levels. For each experiment, outliers were detected by calculating the number of standard deviations from the mean of the group. If the value being examined was more than 2.5 standard deviations from the mean, it was excluded from the rest of the calculations.
The individual mouse percent inhibition values were fit to a four-parameter logistic model using the dose mean for each group.
ED50 and ED80 values were obtained for the various endpoints using a four-parameter logistic fit. For compounds which were tested multiple times, ED50 and ED80 values were obtained using four-parameter logistic fits of the combined data from multiple experiments.

Compound: C[C@]12C=CC(=O)C=C1CC[C@@H]1[C@@H]2[C@@H](O)C[C@@]2(C)[C@H]1CC[C@]2(O)C(=O)CO [Prednisolone]
- IL-6 % Inhibition [1]: 100%
- TNFα Suppression (ED80 dose) (LPS-induced serum TNFα): 2.10 mg/kg
